Results from patent publication US6667387B1, “HCV core peptides” (priority 1992, dated 2003).
Ends that are not written are not given here.

Experiments:
Format in all cases: binding, human
[1] = ELISA with seronegative / negative control sera (specificity)
Experimental: (§1) Where peptides were to be coated directly, stock solutions of the peptides were diluted in sodium carbonate buffer, pH 9.6 and used to coat polystyrene microtiter plates at a peptide concentration of 2 to 5 micrograms per milliliter for 1 hour at 37° C.
(§2) In cases where biotinylated peptides were to be evaluated, plates were first coated with streptavidin in sodium carbonate buffer, pH 9.6 at a concentration of 3 micrograms per milliliter for 1 hour at 37° C. The plates were then washed to remove excess, unbound protein. A working solution of the biotinylated peptide at 1 microgram per milliliter in sodium carbonate buffer was then added to the wells of the microtiter plate and incubated for 1 hours at 37° C.
(§3) Once the plates had been coated with antigen, any remaining free binding sites on the plastic were blocked with casein. After washing, a dilution of the appropriate antisera, usually 1:100, was added to the wells of the plates and incubated for 1 hour at 37° C.
(§4) After washing to remove unbound material, specific antibody binding was detected by incubating the plates with goat anti-human immunoglobulin antibodies conjugated to the enzyme horseradish peroxidase. Following removal of unbound conjugate by washing, a solution containing H2O2 and 3,3′,5,5′-tetramethylbenzidine was added.
(§5) Reactions were stopped after a suitable interval by addition of sulfuric acid. […] Absorbance measurements were made at a wavelength of 450 nanometers and all data are expressed as an optical density value at this wavelength.
(§6) Unbiotinylated HCV peptide I was coated directly onto the wells of a polystyrene ELISA plate at a concentration of 3 micrograms per milliliter in sodium carbonate buffer, pH 9.6. Biotinylated HCV peptide I was bound to streptavidin-coated wells using a stock solution containing the peptide at a concentration of 1 microgram per milliliter. The resulting plates were then incubated in parallel with a panel of sera from HCV-seropositive donors. […] Two of the sera (8326 and 8244) recognize the biotinylated version of this peptide far better than the unbiotinylated version. The specificity of the antibody reaction is also reflected by the low optical density values obtained for 5 serum samples from uninfected donors (F88, F89, F76, F136, and F6).
(§7) To determine how well biotinylated peptides would function in a mixture when bound to streptavidin- or avidin-coated plates, two mixtures were made of the N-terminally biotinylated versions of the HIV-1 peptides TM-HIV-1 (hereabove referred to as 1a.1) and V3-nm (hereabove referred to as 1b.4), the HIV-2 peptide TM-HIV-2 (hereabove referred to as 2a), and the hepatitis C virus peptides II, IX, and XVIII. Mixture A contained each of the six biotinylated peptides at a concentration of 1 microgram per milliliter (6 micrograms per milliliter peptide, total) while in mixture B, each peptide was present at a concentration of 0.1 microgram per milliliter (0.6 microgram per milliliter peptide, total). The individual peptides were coated at a concentration of 1 microgram per milliliter. For purposes of comparison, mixtures A and B were also coated directly onto the wells of a microtiter plate. Samples from HIV-1, HIV-2, and HCV-seropositive donors were tested and compared to sera from seronegative blood donors. A cut-off absorbance value of 0.250 was used to determine whether a reaction was positive or negative. Absorbance values equal or greater than 0.250 were considered positive while absorbance values below this value were considered negative.

[2] = tested on: antibodies in antisera from HIV-1 infected persons; experiment: ELISA with HIV-1 antibody-positive sera (biotinylated peptides on streptavidin- or avidin-coated plates, unbiotinylated peptides coated directly); settings: for optical density (450 nm): Table 2; for number borderline / number negative / number positive / percent borderline / percent negative / percent positive: Table 16
Experimental: as §1, §2, §3, §4, §5
Experiments were performed to evaluate antibody recognition of short, 10 amino acid-long, N-acetylated peptides corresponding to other contained within the transmembrane proteins of HIV-1 and HIV-2. […] The peptides used for the comparison were as follows:
Antibody binding to these peptides was compared to antibody binding to the unibiotinylated peptides which were coated directly onto microtiter plates.
In order to evaluate antibody recognition of these two peptides, the peptides were bound individually to streptavidin-coated microtiter plates and tested using a panel of antisera from HIV-1 seropositive donors.
as §7
A spacer consisting of two glycine residues was added to the amino terminus.

[3] = tested on: antibodies in sera from HCV-seropositive donors; experiment: ELISA with HCV antibody-positive sera (biotinylated peptides on streptavidin- or avidin-coated plates, unbiotinylated peptides coated directly); settings: for optical density (450 nm): 20-fold dilution; for PEPTIDE ELISA (O.D.): Table 12, biotinylated 20-mers
Experimental: as §1, §2, §3, §4, §5
The unbiotinylated peptides were adsorbed onto the wells of polystyrene microtiter plates at a concentration of 3 micrograms per milliliter.
The biotinylated peptides were bound at a concentration of 1 microgram per milliliter to streptavidin-coated microtiter plates. Sera known to contain antibodies to these peptides were used for the evaluation and were tested at a 20-fold dilution.
To investigate further the enhanced antibody recognition of biotinylated HCV peptides bound to streptavidin or avidin as compared to direct adsorption on plastic, the influence of peptide coating concentration was investigated. Three peptides (HCV peptides II, XI, and XVI) were coated in concentrations ranging from 10 nanograms per milliliter to 3 micrograms per milliliter in a volume of 200 microliters per microtiter plate well. For direct coating, the unbiotinylated versions of these peptides were used. The biotinylated versions of these peptides were used to coat wells to which streptavidin had previously been adsorbed. Sera known to contain antibodies to these peptides were used at a dilution of 1 to 100 to evaluate the magnitude of antibody binding.
as §6
To determine how well biotinylated peptides would function in a mixture when bound to streptavidin- or avidin-coated plates, two mixtures were made of the N-terminally biotinylated versions of the HIV-1 peptides TM-HIV-1 (hereabove referred to as 1a.1) and V3-nm (hereabove referred to as 1b.4), the HIV-2 peptide TM-HIV-2 (hereabove referred to as 2a), and the hepatitis C virus peptides II, IX, and XVIII. […]

## Ac-Tyr-Asn-Lys-Arg-Lys-Arg-Ile-His-Ile-Gly-Pro-Gly-Arg-Ala-Phe-Tyr-Thr-Thr-Lys-Asn-Ile-Ile-Gly-NH2 (Ac-YNKRKRIHIGPGRAFYTTKNIIG-NH2) [Peptide V3-mn]
[1]; Table 2, negative control
  optical density (450 nm): 0.063
[2]; sample 266
  optical density (450 nm): 0.951
[2]; sample 3990
  optical density (450 nm): 1.442
[2]; sample 4436
  optical density (450 nm): 0.388
[2]; sample 4438
  optical density (450 nm): 0.736
[2]; sample DV
  optical density (450 nm): 1.314
[2]; sample MM
  optical density (450 nm): 0.791
[2]; sample OOST 4
  optical density (450 nm): 1.106
[2]; sample OOST 6
  optical density (450 nm): 1.025
[2]; sample OOST 8
  optical density (450 nm): 1 389
[2]; sample PL
  optical density (450 nm): 0.531
[2]; sample VE
  optical density (450 nm): 1.717
[2]; sample YS
  optical density (450 nm): 1.442

## NNTRRGIHMGWGRTFYATGEIIG [Peptide V3-368, two glycine residues at the amino terminus, N-terminal glycine biotinylated]
[2]; African sera, 45 tested
  number borderline: 9
  number negative: 31
  number positive: 5
  percent borderline: 20%
  percent negative: 69%
  percent positive: 11%
[2]; Brazilian sera, 36 tested
  number borderline: 15
  number negative: 5
  number positive: 16
  percent borderline: 41.7%
  percent negative: 13.9%
  percent positive: 44.4%
[2]; European sera, 36 tested
  number borderline: 20
  number negative: 12
  number positive: 4
  percent borderline: 56%
  percent negative: 33%
  percent positive: 11%

## SQHLPYIEQGMMLAEQFKQK
[1]; Table 4A, negative serum
  optical density (450 nm): 0.095
[3]; Table 4A, serum 2
  optical density (450 nm): 1.971
[3]; Table 4A, serum 3
  optical density (450 nm): 2.086
[3]; Table 4A, serum 4
  optical density (450 nm): 1.976
[3]; Table 4A, serum 6
  optical density (450 nm): 0.518
[3]; Table 4A, serum 8
  optical density (450 nm): 2.624
[3]; Table 4A, serum 10
  optical density (450 nm): 2.321
[3]; Table 4A, serum 11
  optical density (450 nm): 2.378
[3]; Table 4A, serum 23
  optical density (450 nm): 2.503
[3]; Table 4A, serum 31
  optical density (450 nm): 2.104
[3]; Table 4A, serum 33
  optical density (450 nm): 1.857
[3]; Table 4A, serum 49
  optical density (450 nm): 2.180
[3]; Table 4A, serum 77
  optical density (450 nm): 0.159
[3]; serum 0843
  PEPTIDE ELISA (O.D.): 2.268
[3]; serum 8240
  PEPTIDE ELISA (O.D.): 0.182
[3]; serum 8241
  PEPTIDE ELISA (O.D.): 2.280
  antibody binding to the 20-mers: very strong
[3]; serum 8242
  PEPTIDE ELISA (O.D.): 1.625
[3]; serum 8332
  PEPTIDE ELISA (O.D.): 0.575
[3]; serum 8339
  PEPTIDE ELISA (O.D.): 0.043
[3]; serum 8350
  PEPTIDE ELISA (O.D.): 0.623
[3]; serum 8377
  PEPTIDE ELISA (O.D.): 2.227
[3]; serum 8378
  PEPTIDE ELISA (O.D.): 1.449
[3]; serum 8388
  PEPTIDE ELISA (O.D.): 1.018

## Ser-Gln-His-Leu-Pro-Tyr-Ile-Glu-Gln-Gly-Met-Met-Leu-Ala-Glu-Gln-Phe-Lys-Gln-Lys [Biotinylated peptide XI] (SQHLPYIEQGMMLAEQFKQK; also: biotinylated) [probably the unbiotinylated peptide XI, acetylated at the amino terminus, coated directly]
[1]; Table 4A, negative serum
  optical density (450 nm): 0.053
[3]; Table 4A, serum 2
  optical density (450 nm): 0.090
[3]; Table 4A, serum 3
  optical density (450 nm): 0.443
[3]; Table 4A, serum 4
  optical density (450 nm): 0.473
[3]; Table 4A, serum 6
  optical density (450 nm): 0.053
[3]; Table 4A, serum 8
  optical density (450 nm): 1.275
[3]; Table 4A, serum 10
  optical density (450 nm): 0.764
[3]; Table 4A, serum 11
  optical density (450 nm): 0.569
[3]; Table 4A, serum 23
  optical density (450 nm): 0.775
[3]; Table 4A, serum 31
  optical density (450 nm): 0.497
[3]; Table 4A, serum 33
  optical density (450 nm): 0.832
[3]; Table 4A, serum 49
  optical density (450 nm): 0.515
[3]; Table 4A, serum 77
  optical density (450 nm): 0.093

## TRKTSERSQPRGRRQPIPKV [listing 1 of 2 here]
[1]; Table 4E, negative serum
  optical density (450 nm): 0.047
[3]; Table 4E, serum 8272
  optical density (450 nm): 0.589
[3]; Table 4E, serum 8273
  optical density (450 nm): 0.294
[3]; Table 4E, serum 8274
  optical density (450 nm): 1.820
[3]; Table 4E, serum 8275
  optical density (450 nm): 1.728
[3]; Table 4E, serum 8276
  optical density (450 nm): 2.194
[3]; Table 4E, serum 8277
  optical density (450 nm): 0.770
[3]; Table 4E, serum 8278
  optical density (450 nm): 1.391
[3]; Table 4E, serum 8284
  optical density (450 nm): 0.040

## TRKTSERSQPRGRRQPIPKV [listing 2 of 2 here]
[1]; Table 4E, negative serum
  optical density (450 nm): 0.070
[3]; Table 4E, serum 8272
  optical density (450 nm): 1.220
[3]; Table 4E, serum 8273
  optical density (450 nm): 1.026
[3]; Table 4E, serum 8274
  optical density (450 nm): 2.662
[3]; Table 4E, serum 8275
  optical density (450 nm): 1.724
[3]; Table 4E, serum 8276
  optical density (450 nm): 2.616
[3]; Table 4E, serum 8277
  optical density (450 nm): 1.796
[3]; Table 4E, serum 8278
  optical density (450 nm): 1.746
[3]; Table 4E, serum 8284
  optical density (450 nm): 0.757
[3]; serum 0843
  PEPTIDE ELISA (O.D.): 1.378
[3]; serum 8240
  PEPTIDE ELISA (O.D.): 2.021
[3]; serum 8241
  PEPTIDE ELISA (O.D.): 0.274
[3]; serum 8242
  PEPTIDE ELISA (O.D.): 2.315
[3]; serum 8332
  PEPTIDE ELISA (O.D.): 1.455
[3]; serum 8339
  PEPTIDE ELISA (O.D.): 2.598
[3]; serum 8350
  PEPTIDE ELISA (O.D.): 0.685
[3]; serum 8377
  PEPTIDE ELISA (O.D.): 0.076
[3]; serum 8378
  PEPTIDE ELISA (O.D.): 1.228
[3]; serum 8388
  PEPTIDE ELISA (O.D.): 2.162
